Assay results reported in patent US20140343000A1 (priority 2011, published 2014).

Tested on: recombinant NL4-3 virus (Renilla luciferase in nef, Gag P373S; NLRluc) in MT-2 cells
Assay: whole plant or invertebrate
Type: cell-based, HIV
Conditions: Renilla, NL43
Outline: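 First, reporter virus was generated in 293T cells and titered on MT-2 cells. Next, MT-2 cells were infected in the presence of serial compound dilutions for 4-5 days. Finally, cells were lysed and luciferase activity was measured to quantify inhibition.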

SMILES	EC50
C=C(C)[C@@H]1CC[C@]2(NCCN3CCS(=O)(=O)CC3)CC[C@]3(C)[C@H](CC[C@@H]4[C@@]5(C)CC=C(c6ccc(C(=O)NS(=O)(=O)C7CC7)cc6)C(C)(C)[C@@H]5CC[C@]43C)[C@@H]12 [Example 164, N-(cyclopropylsulfonyl)-4-((1R,3aS,5aR,5bR,7aR,11aS,11bR,13aR,13bR)-3a-((2-(1,1-dioxido-4-thiomorpholinyl)ethyl)amino)-1-isopropenyl-5a,5b,8,8,11a-pentamethyl-2,3,3a,4,5,5a,5b,6,7,7a,8,11,11a,11b,12,13,13a,13b-octadecahydro-1H-cyclopenta[a]chrysen-9-yl)benzamide]	< 100 nM

Same assay, conditions: Renilla, NL43, luciferase activity in cells infected for 4-5 days with NLRluc recombinants, serial dilutions of inhibitor; class symbols (key in Table 1); read-out: EC50

SMILES	EC50
C=C(C)[C@@H]1CC[C@]2(NCCN3CCN(C(=O)C4CCCCC4)CC3)CC[C@]3(C)[C@H](CC[C@@H]4[C@@]5(C)CC=C(c6ccc(C(=O)O)cc6)C(C)(C)[C@@H]5CC[C@]43C)[C@@H]12 [Example B53, 4-((1R,3aS,5aR,5bR,7aR,11aS,11bR,13aR,13bR)-3a-((2-(4-(cyclohexanecarbonyl)piperazin-1-yl)ethyl)amino)-5a,5b,8,8,11a-pentamethyl-1-(prop-1-en-2-yl)-2,3,3a,4,5,5a,5b,6,7,7a,8,11,11a,11b,12,13,13a,13b-octadecahydro-1H-cyclopenta[a]chrysen-9-yl)benzoic acid]	< 100 nM
C=C(C)[C@@H]1CC[C@]2(N)CC[C@]3(C)[C@H](CC[C@@H]4[C@@]5(C)CC=C(c6ccc(C(=O)O)c(F)c6)C(C)(C)[C@@H]5CC[C@]43C)[C@@H]12 [Example A1, 4-((1R,3aS,5aR,5bR,7aR,11aS,11bR,13aR,13bR)-3a-amino-5a,5b,8,8,11a-pentamethyl-1-(prop-1-en-2-yl)-2,3,3a,4,5,5a,5b,6,7,7a,8,11,11a,11b,12,13,13a,13b-octadecahydro-1H-cyclopenta[a]chrysen-9-yl)-2-fluorobenzoic acid]	< 100 nM
C=C(C)[C@@H]1CC[C@]2(NCCN3CCN(C(=O)C(C)C)CC3)CC[C@]3(C)[C@H](CC[C@@H]4[C@@]5(C)CC=C(c6ccc(C(=O)O)cc6)C(C)(C)[C@@H]5CC[C@]43C)[C@@H]12 [Example B64, 4-((1R,3aS,5aR,5bR,7aR,11aS,11bR,13aR,13bR)-3a-((2-(4-isobutyrylpiperazin-1-yl)ethyl)amino)-5a,5b,8,8,11a-pentamethyl-1-(prop-1-en-2-yl)-2,3,3a,4,5,5a,5b,6,7,7a,8,11,11a,11b,12,13,13a,13b-octadecahydro-1H-cyclopenta[a]chrysen-9-yl)benzoic acid]	< 100 nM
C=C(C)[C@@H]1CC[C@]2(NCCN3CCCC3=O)CC[C@]3(C)[C@H](CC[C@@H]4[C@@]5(C)CC=C(c6ccc(C(=O)O)cc6)C(C)(C)[C@@H]5CC[C@]43C)[C@@H]12 [Example 146, 4-((1R,3aS,5aR,5bR,7aR,11aS,11bR,13aR,13bR)-5a,5b,8,8,11a-pentamethyl-3a-(2-(2-oxopyrrolidin-1-yl)ethylamino)-1-(prop-1-en-2-yl)-2,3,3a,4,5,5a,5b,6,7,7a,8,11,11a,11b,12,13,13a,13b-octadecahydro-1H-cyclopenta[a]chrysen-9-yl)benzoic acid]	< 100 nM
C=C(C)[C@@H]1CC[C@]2(NCCN(CCC(=O)O)CCC(=O)O)CC[C@]3(C)[C@H](CC[C@@H]4[C@@]5(C)CC=C(c6ccc(C(=O)O)cc6)C(C)(C)[C@@H]5CC[C@]43C)[C@@H]12 [Example 141, 3,3′-(2-((1R,3aS,5aR,5bR,7aR,11aS,11bR,13aR,13bR)-9-(4-carboxyphenyl)-5a,5b,8,8,11a-pentamethyl-1-(prop-1-en-2-yl)-2,3,3a,4,5,5a,5b,6,7,7a,8,11,11a,11b,12,13,13a,13b-octadecahydro-1H-cyclopenta[a]chrysen-3a-ylamino)ethylazanediyl)dipropanoic acid]	< 100 nM
C=C(C)[C@@H]1CC[C@]2(NCCN3CCN(C(=O)OC(C)(C)C)CC3)CC[C@]3(C)[C@H](CC[C@@H]4[C@@]5(C)CC=C(c6ccc(C(=O)O)cc6)C(C)(C)[C@@H]5CC[C@]43C)[C@@H]12 [Example B13, 4-((1R,3aS,5aR,5bR,7aR,11aS,11bR,13aR,13bR)-3a-((2-(4-(tert-butoxycarbonyl)piperazin-1-yl)ethyl)amino)-5a,5b,8,8,11a-pentamethyl-1-(prop-1-en-2-yl)-2,3,3a,4,5,5a,5b,6,7,7a,8,11,11a,11b,12,13,13a,13b-octadecahydro-1H-cyclopenta[a]chrysen-9-yl)benzoic acid]	< 100 nM
C=C(C)[C@@H]1CC[C@]2(Nc3nc(C(C)(C)C)cs3)CC[C@]3(C)[C@H](CC[C@@H]4[C@@]5(C)CC=C(c6ccc(C(=O)O)cc6)C(C)(C)[C@@H]5CC[C@]43C)[C@@H]12 [Example 185, 4-((1R,3aS,5aR,5bR,7aR,11aS,11bR,13aR,13bR)-3a-(4-tert-butylthiazol-2-ylamino)-5a,5b,8,8,11a-pentamethyl-1-(prop-1-en-2-yl)-2,3,3a,4,5,5a,5b,6,7,7a,8,11,11a,11b,12,13,13a,13b-octadecahydro-1H-cyclopenta[a]chrysen-9-yl)benzoic acid]	> 100 nM
C=C(C)[C@@H]1CC[C@]2(NCCN3CCN(S(=O)(=O)c4cccnc4)CC3)CC[C@]3(C)[C@H](CC[C@@H]4[C@@]5(C)CC=C(c6ccc(C(=O)O)cc6)C(C)(C)[C@@H]5CC[C@]43C)[C@@H]12 [Example B36, 4-((1R,3aS,5aR,5bR,7aR,11aS,11bR,13aR,13bR)-5a,5b,8,8,11a-pentamethyl-1-(prop-1-en-2-yl)-3a-((2-(4-(pyridin-3-ylsulfonyl)piperazin-1-yl)ethyl)amino)-2,3,3a,4,5,5a,5b,6,7,7a,8,11,11a,11b,12,13,13a,13b-octadecahydro-1H-cyclopenta[a]chrysen-9-yl)benzoic acid]	< 100 nM
C=C(C)[C@@H]1CC[C@]2(NCCN3CCN(S(=O)(=O)CC(C)C)CC3)CC[C@]3(C)[C@H](CC[C@@H]4[C@@]5(C)CC=C(c6ccc(C(=O)O)cc6)C(C)(C)[C@@H]5CC[C@]43C)[C@@H]12 [Example B35, 4-((1R,3aS,5aR,5bR,7aR,11aS,11bR,13aR,13bR)-3a-((2-(4-(isobutylsulfonyl)piperazin-1-yl)ethyl)amino)-5a,5b,8,8,11a-pentamethyl-1-(prop-1-en-2-yl)-2,3,3a,4,5,5a,5b,6,7,7a,8,11,11a,11b,12,13,13a,13b-octadecahydro-1H-cyclopenta[a]chrysen-9-yl)benzoic acid]	< 100 nM
C=C(C)[C@@H]1CC[C@]2(NCCN3CCN(C(=O)CC)CC3)CC[C@]3(C)[C@H](CC[C@@H]4[C@@]5(C)CC=C(c6ccc(C(=O)O)cc6)C(C)(C)[C@@H]5CC[C@]43C)[C@@H]12 [Example B60, 4-((1R,3aS,5aR,5bR,7aR,11aS,11bR,13aR,13bR)-5a,5b,8,8,11a-pentamethyl-1-(prop-1-en-2-yl)-3a-((2-(4-propionylpiperazin-1-yl)ethyl)amino)-2,3,3a,4,5,5a,5b,6,7,7a,8,11,11a,11b,12,13,13a,13b-octadecahydro-1H-cyclopenta[a]chrysen-9-yl)benzoic acid]	< 100 nM
